Columns and labels:
[1] = tested on: HCT116 tumors; test: Immunofluorescence of cleaved caspase-3 in HCT116 tumor slides (NOD/SCID); assay type: in vivo, human; settings: NOD/SCID model
Protocol: (§1) FIG. 7C: Immunofluorescence assay of Cleaved caspase-3 (C3C) in HCT116 from NOD mice tumors treated with VEH (column on the left) or with compound 33 (column on the right). […] (Ordinate: Caspase-3 cleaved relative fluorescence in percentage). Statistical analysis has been performed by ANOVA (***=p=0.0003). Scale bar=50 μm.
(§2) Two different colorectal mouse models were used: a syngeneic model for which mouse colon cancer CT-26 cells were injected into Balb/c mice and a NOD/SCID model in which mice were implanted with human colorectal cancer HCT116 cells (FIG. 4 A-B). When the tumor reached a size of −2 mm, mice were treated intraperitoneally with the compound 33 at 5 mg/Kg (BALB/c n=11, NOD SCID n=6) or corn oil 5% DMSO (BALB/c n=10, NOD SCID n=6), every three days until the end of the experiment. The compound 33 was dissolved in DMSO, then diluted 20 times in corn oil (Sigma Aldrich-C8267) and sterilized by filtration with PTFE membrane Millex 0.2 μm (Millipore-SLFG025LS). Tumors were analyzed before reaching 2000 mm3. Treatment by compound 33 induces a decrease in tumor growth of 40% and 60% in the Balb/c and NOD mice, respectively (FIGS. 6A and 6B).

[2] = tested on: human colorectal cancer HCT116 cells; test: Tumor growth, HCT116 xenograft in NOD/SCID mice; assay type: in vivo; settings: HCT116, 5 mg/Kg intraperitoneally every three days
Protocol: FIG. 6B: Tumor volume monitoring of HCT116 cells grown in NOD/SCID animals treated intraperitoneally either with a non-relevant compound which is DMSO (named VEH line with circle) or treated with the compound 33 (5 mg/kg—line with square) (Abscissa: Days from 0 to 62 in day; Ordinate: Tumor volume in mm^3 from 0 to 2500 (scale 500)).
as §2

[3] = tested on: mouse colon cancer CT-26 cells; test: Tumor growth, syngeneic CT-26 model in Balb/c mice; assay type: in vivo; settings: CT-26, 5 mg/Kg intraperitoneally every three days
Protocol: FIG. 6A: Tumor volume monitoring of CT26 cells in Balb/c mice control-treated (Ctrl—line with circle) and treated with the compound 33 (5 mg/kg—line with square). Animals were treated by intraperitoneally injection every three days. (Abscissa: Days from 0 to 16 in day; Ordinate: Tumor volume in mm^3 from 0 to 200 (scale 500))
as §2

[4] = tested on: DLBCL cell lines (HBL1, TMD8, U2932); test: Viability of B-cell lymphoma cell lines, combination with Ibrutinib; assay type: cell-based, human; settings: compound 33 at suboptimal 10 μM, Ibrutinib 0.01-100 nM
Protocol: FIG. 12: Viability of various B-cell lymphoma cell lines treated with a suboptimal concentration of compound 33 (i) alone or (ii) in combination with increasing concentrations of Ibrutinib.
Groups of bars, from the left to the right of FIG. 12: (i) HBL1 human diffuse large B-cell lymphoma cell line not treated with compound 33 and treated with and increasing concentrations of Ibrutinib, (ii) HBL1 human diffuse large B-cell lymphoma cell line treated with 10 μM of compound 33 and increasing concentrations of Ibrutinib, (iii) TMD8 human B cell lymphoma cell line not treated with compound 33 and treated with and increasing concentrations of Ibrutinib, (iv) TMD8 human B cell lymphoma cell line treated with 10 μM of compound 33 and increasing concentrations of Ibrutinib, (v) U2932 human diffuse large B-cell lymphoma cell line not treated with compound 33 and treated with and increasing concentrations of Ibrutinib, and (vi). U2932 human diffuse large B-cell lymphoma cell line treated with 10 μM of compound 33 and increasing concentrations of Ibrutinib.
In each group of bars, form the left to the right: (i) Control (0 nM), without treatment with Ibrutinib, (ii) Ibrutinib at 0.01 nM, (iii) Ibrutinib at 0.1 nM, (iv) Ibrutinib at 1 nM, (v) Ibrutinib at 10 nM, (vi) Ibrutinib at 100 nM.

[5] = tested on: CT26 tumors; test: Immunofluorescence of P-STAT3 and cleaved caspase-3 in CT26 tumor slides (Balb/c); assay type: in vivo, mouse
Description: FIG. 7A: Immunofluorescence assay of P-STAT3 (Phosphorylated STAT3) in CT26 cells in Balb/c mice tumors treated with VEH (non-relevant compound which is DMSO) (column on the left) or with compound 33 (column on the right). […] Statistical analysis has been performed by ANOVA (*=p=0.0019).
as §1, with “7B:” for “7C:”, “cleaved” for “Cleaved”, “CT26 cells in Balb/c” for “HCT116 from NOD”, “(***=p=0.0003)” for “(***=p=0.0003). Scale bar=50 μm.”
as §2, with “Treatment by compound 33 induces a decrease in tumor growth of 40% and 60% in the Balb/c and NOD mice, respectively (FIGS. 6A and 6B).” left out

[6] = tested on: DLBCL cell lines; test: Viability of B-cell lymphoma cell lines (Annexin V/7AAD staining); assay type: cell-based, human; settings: 96 h, 5-40 μM
Description: FIG. 10E: Viability of various B-cell lymphoma cell lines treated with increasing concentrations of compound 33 (inhibitor 33).
Groups of bars, from the left to the right of FIG. 10E: (i) OCI-Ly10 human diffuse large B-cell lymphoma cell line, (ii) HBL1 human diffuse large B-cell lymphoma cell line, (iii) TMD8 human B cell lymphoma cell line, (iv) OCI-Ly3 human large B-cell lymphoma cell line and (v) U2932 human diffuse large B-cell lymphoma cell line.
In each group of bars, from the left to the right: (i) Control, without treatment, (ii) Compound 33 at 5 μM, (iii) Compound 33 at 10 μM, (iv) Compound 33 at 20 μM, (v) Compound 33 at 30 μM, (vi) Compound 33 at 40 μM.
FIG. 10F: Viability of various B-cell lymphoma cell lines treated with increasing concentrations of compound 52 (inhibitor 52).
Groups of bars, from the left to the right of FIG. 10F: (i) TMD8 human B cell lymphoma cell line and (ii) OCI-Ly3 human large B-cell lymphoma cell line.
In each group of bars, from the left to the right: (i) Control, without treatment (0 μM), (ii) Compound 52 at 5 μM, (iii) Compound 52 at 10 μM, (iv) Compound 52 at 20 μM, (v) Compound 52 at 30 μM, (vi) Compound 52 at 40 μM.

[7] = tested on: TMD8 human DLBCL cells; test: TMD8 DLBCL xenograft in immunodeficient mice, tumor growth; assay type: in vivo; settings: 10 or 20 mg/kg intraperitoneally
Protocol: FIG. 11A: Tumor volume monitoring of TMD8 human DLBCL cells grown in Immunodeficient mice treated intraperitoneally with the compound 52 (=inhibitor 52) at 10 or 20 mg/kg or with vehicle at the same frequency. (Abscissa: Days from 0 to 25 in day; Ordinate: Tumor volume in mm^3 from 0 to 4000 (scale 1000)).
FIG. 11B: Tumor weight monitoring of TMD8 human DLBCL cells grown in Immunodeficient mice treated intraperitoneally with the compound 52 (=inhibitor 52) at 10 or 20 mg/kg or with vehicle at the same frequency. (Abscissa: Treatments vehicle, 10 mg/kg or 20 mg/kg of compound 52; Ordinate: Tumor weight in g from 0 to 4 g (scale 1)).

**Q.** With `COc1ccc(-c2ncc(-c3ncc(-c4cc(OC)c(OC)c(OC)c4)cc3/C=C/c3ccccc3)cc2C)cc1OC` [compound 33, (E)-6′-(3,4-Dimethoxyphenyl)-5′-methyl-3-styryl-5-(3,4,5-trimethoxyphenyl)-2,3′-bipyridine] as the molecule, how does the “tumor cell apoptosis (cleaved caspase-3 staining)” value [1] read?
**A.** increase in tumor cell apoptosis

**Q.** What about the “decrease in tumor growth” value [2] of the same molecule?
**A.** 60%

**Q.** What about the “decrease in tumor growth” value [3] of the same molecule?
**A.** 40%

**Q.** And the “effect in combination with Ibrutinib on viability” value [4]?
**A.** synergistic effect

**Q.** What about the “P-STAT3 in tumor slides (relative fluorescence)” value ([5]; CT26 tumors in Balb/c mice, control 100%) of the same molecule?
**A.** 50%

**Q.** And the “tumor cell apoptosis (cleaved caspase-3 staining)” value ([5]; CT26 tumors, Balb/c model)?
**A.** increase in tumor cell apoptosis

**Q.** And the “viability of DLBCL cell lines” value ([6]; OCI-Ly10, HBL1, TMD8, OCI-Ly3 and U2932)?
**A.** reduces the viability

**Q.** How did the “tumor growth of xenografted DLBCL cell line” value [7] turn out when `COc1cc(-c2cnc(-c3cnc(-c4cc(OC)c(OC)c(OC)c4)c(C)c3)c(/C=C/c3ccccc3)c2)cc(OC)c1OC` [compound 52, (E)-5′-Methyl-3-styryl-5,6′-bis(3,4,5-trimethoxyphenyl)-2,3′-bipyridine] was run?
**A.** reduced the tumor growth

**Q.** What about the “viability of DLBCL cell lines” value ([6]; TMD8 and OCI-Ly3) of the same molecule?
**A.** reduces the viability
